Each structure is given as a SMILES string.

This experiment has as its target T1, Astrosclerin-3 (Astrosclera willeyana, UniProt A6YCJ1).
T1 sequence (A6YCJ1 whole entry): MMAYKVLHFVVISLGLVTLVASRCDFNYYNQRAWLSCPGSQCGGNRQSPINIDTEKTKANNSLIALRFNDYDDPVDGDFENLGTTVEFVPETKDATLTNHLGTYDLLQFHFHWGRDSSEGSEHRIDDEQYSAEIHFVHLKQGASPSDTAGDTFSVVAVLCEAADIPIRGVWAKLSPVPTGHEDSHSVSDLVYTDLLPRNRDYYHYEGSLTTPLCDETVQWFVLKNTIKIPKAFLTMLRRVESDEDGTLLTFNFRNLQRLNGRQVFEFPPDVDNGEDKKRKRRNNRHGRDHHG
Briefly: biochemical. In kind it is cell-based.
Description: Inhibition of Astrosclera willeyana recombinant GST-tagged astrosclerin 3 expressed in Escherichia coli BL21-DE3-RIPL cells preincubated for 15 mins measured for 10 to 100 secs by stopped flow CO2 hydration assay
Usually Ki stands for the equilibrium dissociation constant of an inhibitor or competing ligand from its target. A low value points to higher affinity. Consider `S=C(S)S` [SODIUM CARBONOTRITHIOATE], for which the Ki amounted to 710 µM. Take `O=P(O)(O)OP(=O)(O)O` [SODIUM PYROPHOSPHATE]: the Ki worked out at 57700 µM. Consider `[F-].[Na+]` [SODIUM FLUORIDE], for which the Ki stood at 940 µM. On to `[N-]=[N+]=[N-]` [SODIUM AZIDE], for which the affinity corresponds to a Ki of 27800 µM. For `OB(O)c1ccccc1` [PHENYLBORONIC ACID], the Ki was 9.6 µM. As for `O=NO` [SODIUM NITRITE], the figure is 63800 µM; as for `O=C([O-])O.[Na+]` [SODIUM BICARBONATE], 22800 µM. In the case of `O=[N+]([O-])[O-].[Na+]` [SODIUM NITRATE], the Ki amounted to 76400 µM. Then `O=S([O-])O.[Na+]` [SODIUM BISULFITE], with 320 µM.

The compound `N#CO` [SODIUM CYANATE] registered a Ki of 230 µM.

As for `[I-].[Na+]` [SODIUM IODIDE], affinity was put at a Ki of 10400 µM. Then `O=[Te](=O)(O)O` [SODIUM TELLURATE], with 750 µM; and `O=S(=O)(O)OOS(=O)(=O)O` [SODIUM PERSULFATE], with 70600 µM.

Take `O=[Se](=O)(O)O` [SODIUM SELENATE]: the Ki stood at 880 µM. `O=S(=O)(O)NS(=O)(=O)O` [SODIUM IMINODISULFONATE] gave a Ki of 660 µM. Take `O=C([O-])[O-].[Na+].[Na+]` [SODIUM CARBONATE]: the Ki is 13500 µM. Consider `[O-][Cl+3]([O-])([O-])O` [SODIUM PERCHLORATE], for which the Ki was determined as 5110 µM. `CCN(CC)C(=S)S` [DITIOCARB SODIUM]: the inhibitory constant (Ki) is 450 µM.

Compound `N#C[SeH]` [SODIUM SELENOCYANATE] displayed a Ki of 770 µM. `S` [SODIUM HYDROSULFIDE] came in with a Ki of 490 µM. In the case of `O=S(=O)(O)OS(=O)(=O)O` [SODIUM PYROSULFATE], the Ki was found to be 88100 µM. As for `NS(N)(=O)=O` [SULFAMIDE], the figure is 8.9 µM; as for `[Cl-].[Na+]` [SODIUM CHLORIDE], 460 µM. As for `F[B-](F)(F)F.[Na+]` [SODIUM TETRAFLUOROBORATE], the figure is greater than 200000 µM; as for `[Br-].[Na+]` [SODIUM BROMIDE], 30600 µM.

The compound `O=S(=O)([O-])[O-].[Na+].[Na+]` [SODIUM SULFATE ANHYDROUS] came in with a Ki of 76300 µM. As to `O=BOB(O)OB(O)OB=O` [SODIUM TETRABORATE], the affinity corresponds to a Ki of 21900 µM. Turning to `NS(=O)(=O)O` [SODIUM SULFAMATE], the Ki was 13 µM.

Source of the values: ChEMBL document CHEMBL1949581, “Anion inhibition studies of an α-carbonic anhydrase from the living fossil Astrosclera willeyana” (Bioorg Med Chem Lett, 2012).
